Results reported in patent publication US12002595B2, “Separation of metal ions by liquid-liquid extraction” (priority 2016, dated 2024).

How the values were obtained:
[1] = Extraction by HDEHP with 1 mM 343HOPO in 0.1 M HNO3 and 1.9 M NaNO3; conditions: chelator in place of 343HOPO; acidic conditions
Method: Aqueous phase: 1 mM 343HOPO in 0.1 M HNO3 and 1.9 M NaNO3. Organic phase: HDEHP in kerosene.
A log scale is used for clarity. See FIGS. 58A and 58B for results as a function of the phase ratio.
(§1) For Example 20—Example 24, pH measurements were performed with a glass electrode (Metrohm-Micro Combi-response to [H+]) calibrated at 25.0° C. using three NIST standards. Extraction samples were analyzed by liquid scintillation counting (LSC). The distribution coefficient, D(M), of a given metal, M, is defined in Eq. 1, where [M]organic and [M]aqueous are the respective total concentrations of M in the organic and aqueous layers, after extraction. Both concentrations are proportional to the volumetric activity (in Bq/L) determined by LSC. The separation factor, SFM1/M2, between two metals, M1 and M2, and extraction yield were calculated according to Eq. 2 and Eq. 3, respectively.
(§2) In a typical experiment, the solvent (extractant diluted in kerosene) was pre-conditioned by shaking one volume of solvent with three volumes of aqueous phase (typically HNO3) at room temperature for 1 h, thrice. For radioisotope extractions, at least 400 μL aqueous phase (typically containing HNO3, a chelator and a radioisotope) and solvent were placed in air-tight screw-capped plastic tubes, triply-contained, and shaken in a thermoshaker at 300 rpm, 25° C., for at least 30 min. Samples were then centrifuged for 5 min at 3000 rpm and phases separated before analysis. LSC analyses were performed on a Packard Tri-Carb B4430 instrument (Perkin Elmer) after mixing sample aliquots or sample dilution aliquots (10 to 200 μL) with 10 mL of scintillation cocktail (UltimaGold LLT). Samples were counted for at least 6 min and results were background subtracted. The analytical samples contained between 0 and 800,000 CPM. Mixtures of ^249Bk and ^249Cf were analyzed using α/β discrimination and energy windows were set to 0-50 keV for low-energy β particles of ^249Bk and 50-1000 keV for α particles of ^249Cf. ^243Am and ^225Ac samples were counted at secular equilibrium.

[2] = Eu(III), I=2.0 M at 25° C.; cited from earlier work
[3] = Extraction by TODGA from HNO3 in the absence or presence of 1 mM 343HOPO
Method: Organic phase: 0.1 M TODGA in kerosene. Aqueous solvent: HNO3. T=25° C. O/A=1, one contact. Points with arrows are lower limits.
as §1, §2

[4] = Stability constant (log β) of ligand-metal complexes; format: binding; conditions: 25.0° C., 0.1 M KCl
Method: Solution Thermodynamics. All titrant solutions were degassed by boiling for 1 h while being purged under Ar. Carbonate-free 0.1 M KOH was prepared from concentrate (J. T Baker Dilut-It) and was standardized by titrating against 0.1 M potassium hydrogen phthalate (99.95%, Sigma Aldrich). Solutions of 0.1 M HCl were similarly prepared and were standardized by titrating against TRIS (99.9%, J. T. Baker). The glass electrode (Metrohm—Micro Combi—response to [H+]) used for the pH measurements was calibrated at 25.0° C. and at an ionic strength of 0.1 M (KCl) before each potentiometric or spectrophotometric titration. The calibration data were analyzed using the program GLEE (Gans & O'Sullivan, Talanta, 2000, 51 (1): 33-37) to refine for the E° and slope. All thermodynamic measurements were conducted at 25.0° C., in 0.1 M KCl supporting electrolyte under positive Ar gas pressure. The automated titration system was controlled by an 867 pH Module (Metrohm). Two-milliliter Dosino 800 burets (Metrohm) dosed the titrant (0.1 M KOH or 0.1 M HCl) into the thermostated titration vessel (5-90 mL). UV-visible spectra were acquired with an Ocean Optics USB4000-UV-vis spectrometer equipped with a TP-300 dip probe (Ocean Optics; path length of 10 mm), fiber optics and a DH-2000 light source (deuterium and halogen lamps). The fully automated titration system and the UV-vis spectrophotometer were coordinated by LBNL titration system, a computer program developed in house.
Incremental Spectrophotometric Titrations. This method was used to determine the protonation constants of 3,4,3-LI(CAM) as well as the stability constants of its complexes formed with Eu(III), Zr(IV) and ^232Th(IV). The experimental titration setup is similar to previously described systems (Sturzbecher-Hoehne, et al., Radiochimica Acta., 2013, 101 (6): 359-366). For the 3,4,3-LI(CAM) protonation (and Eu(III)-3,4,3-LI(CAM) complexes), titrations were performed with an initial concentration of 50 μM of 3,4,3-LI(CAM) (and 50 μM of Eu(III)) resulting in absorbance values included between 0 and 1.0 throughout the titration. Typically, 9 mL of a sample containing 3,4,3-LI(CAM) (and Eu(III)) and the supporting electrolyte (KCl/HCl) were incrementally perturbed by addition of 0.025 mL of carbonate-free 0.1 M KOH followed by a time delay of 80 s. Buffering of the solution was ensured by the addition of 10 mM of HEPES, 10 mM of CHES and 10 mM of MES. Between 130 and 250 data points were collected per titration, each data point including a pH measurement and a UV-Vis spectrum (250-450 nm) over the pH range 1.5 to 12.0. All spectra were corrected for dilution before data fitting. The entire procedure (electrode calibrate, titration and data treatment) was performed independently five times for the protonation constants and four times for the Eu(III)-3,4,3-LI(CAM) complexes. For the Zr(IV) and Th(IV) complexes, titrations were performed similarly but in the presence of DTPA to avoid the formation of metal hydroxides at low pH, before the uptake by 3,4,3-LI(CAM). For each metal, three titrations were performed independently in the presence of 1.1 to 40 equivalents of DTPA.
Data Treatment. […] All metal and chelator concentrations were held at estimated values determined from the volume of standardized stock solutions. All species formed with 3,4,3-LI(CAM) were considered to have significant absorbance to be observed in the UV-vis spectra and were therefore included in the refinement process. […]

SMILES: O=C(O)CN(CC(=O)O)[C@H]1CCCC[C@@H]1N(CC(=O)O)CC(=O)O [CDTA, Trans-1,2-cyclohexanediamine-N,N,N′,N′-tetraacetic acid]
- separation between Bk and Cf [1]: no separation at all

SMILES: O=C(O)CN(CC(=O)O)CC(=O)O [NTA, Nitrilotriacetic acid]
- separation between Bk and Cf [1]: no separation at all

SMILES: CC(O)C(=O)O (stereo not drawn) [lactate]
- log β130 [2]: 5.88

SMILES: CCCCCCCCN(CCCCCCCC)C(=O)COCC(=O)N(CCCCCCCC)CCCCCCCC [TODGA, N,N,N′,N′-tetraoctyl diglycolamide, reference compound]
- distribution factor of uranyl (Du) ([3]; TODGA as extractant): < 30
- extraction yields of Gd^3+, Lu^3+, UO2^2+, Pu^4+, and Cf^3+ from HNO3 ([3]; if HNO3>1 M, no chelator, 0.1 M TODGA in kerosene): > 99.5%

SMILES: O=C(NCCCN(CCCCN(CCCNC(=O)c1cccc(O)c1O)C(=O)c1cccc(O)c1O)C(=O)c1cccc(O)c1O)c1cccc(O)c1O [3,4,3-LI(CAM)]
- log β110 ([4]; [Eu-3,4,3-LI(CAM)]^5−): 29.7
- log β110 ([4]; [Th-3,4,3-LI(CAM)]^4−): 47.7
- log β110 ([4]; [Zr-3,4,3-LI(CAM)]^4−): 57.3

SMILES: O=C(O)CN(CCN(CC(=O)O)CC(=O)O)CC(=O)O [EDTA, Ethylenediaminetetraacetic acid]
- separation between Bk and Cf [1]: no separation at all
